Experimental findings from ChEMBL document CHEMBL1130964, “Naphthoquinone analogs as inactivators of cdc25 phosphatase” (1998) are described below.

Holding throughout (format): functional
The species named for assay [1] is Homo sapiens. In words: The compound was evaluated for the percent cell cycle fraction when human hepatoma SK hep-1 cells were treated with the compound for 12 hours at a concentration of 4 uM in the S phase of cell cycle.
Assay [2] is filed under the species Homo sapiens. In words: The compound was evaluated for the percent cell cycle fraction when human hepatoma SK hep-1 cells were treated with the compound for 6 hours at a concentration of 4 uM in the G1 phase of cell cycle.
Assay [3] concerns SK-HEP1. In words: The compound was evaluated for the percent cell cycle fraction when human hepatoma SK hep-1 cells were treated with the compound for 12 hours at a concentration of 4 uM in the G2/M phase of cell cycle.
Assay [4] relates to SK-HEP1. In words: The compound was evaluated for the percent cell cycle fraction when human hepatoma SK hep-1 cells were treated with the compound for 6 hours at a concentration of 4 uM in the S phase of cell cycle.
The species entered for assay [5] is Homo sapiens. In words: The compound was evaluated for the percent cell cycle fraction when human hepatoma SK hep-1 cells were treated with the compound for 6 hours at a concentration of 4 uM in the G2/M phase of cell cycle.
The species entered for assay [6] is Homo sapiens. The assay can be described thus: The compound was evaluated for the percent cell cycle fraction when human hepatoma SK hep-1 cells were treated with the compound for 24 hours at a concentration of 4 uM in the G1 phase of cell cycle.
In assay [7] the test system is SK-HEP1. The assay can be described thus: The compound was evaluated for the percent cell cycle fraction when human hepatoma SK hep-1 cells were treated with the compound for 0 hr at a concentration of 4 uM in the G1 phase of cell cycle.
Assay [8] concerns SK-HEP1. The assay can be described thus: The compound was evaluated for the percent cell cycle fraction when human hepatoma SK hep-1 cells were treated with the compound for 0 hr at a concentration of 4 uM in the G2/M phase of cell cycle.
Assay [9] is filed under the species Homo sapiens. In words: The compound was evaluated for the percent cell cycle fraction when human hepatoma SK hep-1 cells were treated with the compound for 0 hr at a concentration of 4 uM in the S phase of cell cycle.
For assay [10], the system named is SK-HEP1. The assay can be described thus: The compound was evaluated for the percent cell cycle fraction when human hepatoma SK hep-1 cells were treated with the compound for 24 hours at a concentration of 4 uM in the G2/M phase of cell cycle.
Assay [11] has as its system SK-HEP1. The assay can be described thus: The compound was evaluated for the percent cell cycle fraction when human hepatoma SK hep-1 cells were treated with the compound for 12 hours at a concentration of 4 uM in the G1 phase of cell cycle.
In assay [12] the test system is SK-HEP1. In words: The compound was evaluated for the percent cell cycle fraction when human hepatoma SK hep-1 cells were treated with the compound for 24 hours at a concentration of 4 uM in the S phase of cell cycle.

On to `O=C1C=CC(=O)c2c(O)c(Cl)c(Cl)c(O)c21`, for which the Cell cycle fraction in the assay listed under Homo sapiens [1] amounted to 14%; in the assay listed under Homo sapiens [2] it was 54%; in the assay on SK-HEP1 [3] it was 16%; in the assay with SK-HEP1 [4], 20%; in the assay listed under Homo sapiens [5], 26%; in the assay filed under Homo sapiens [6], 71%. The Cell cycle fraction worked out at 48% with SK-HEP1 [7]; 31% in the assay on SK-HEP1 [8]; 21% in the assay listed under Homo sapiens [9]; 16% with SK-HEP1 [10]; 70% in the assay on SK-HEP1 [11]; 13% in the assay with SK-HEP1 [12].
